One may read the IC50 as the point on the concentration scale where inhibition reaches its midpoint. Low values mean inhibition by little substance, high ones a need for much substance.

Each structure is given as a SMILES string. Converted amounts (≈) assume the structure as drawn.

The results in this text go back to ChEMBL document CHEMBL1147354, “Further bioactive cembranolide diterpenes from the gorgonian Eunicea succinea” (J Nat Prod, 1993).

Holding throughout (assay type): functional, cell-based
Assay [1] has as its system HCT-116. The experiment in a line: Cytotoxicity against human HCT116 cells.
Assay [2] deals with MCF7. The experiment in a line: Cytotoxicity against human MCF7 cells.
Assay [3] relates to SK-MEL-5. In words: Cytotoxicity against human SK-MEL-5 cells.
Assay [4] concerns CCRF-CEM. In words: Cytotoxicity against human CCRF-CEM cells.

On to `C=C1C(=O)O[C@H]2[C@@H](OC(C)=O)[C@H](C)CCC/C(C)=C/CC[C@@]3(C)O[C@@H]3C[C@@H]12`, for which the figures for the IC50 in assay [1], in assay [2] and in assay [3] were 0.4 µg/mL (≈ 1.06 µM), 6 µg/mL (≈ 15.9 µM) and 5 µg/mL (≈ 13.3 µM), respectively.

Take `C=C1C(=O)O[C@H]2[C@H](OC(C)=O)[C@H](C)CCC/C(C)=C/CC[C@@]3(C)O[C@@H]3C[C@@H]12`: the IC50 in assay [1] is 8 µg/mL (≈ 21.2 µM); in assay [2], 8 µg/mL (≈ 21.2 µM); in assay [4] it was no less than 50 µg/mL.

Consider `C=C1C(=O)OC2C(=O)[C@H](C)CCC/C(C)=C/CC[C@@]3(C)O[C@@H]3C[C@@H]12` (some centres undefined) [SUCCINOLIDE], for which the IC50 is 2 µg/mL (≈ 6.02 µM) in assay [1], 3 µg/mL (≈ 9.02 µM) in assay [2] and no less than 50 µg/mL in assay [4].
